From patent publication US6579873B2, “3 (5)-heteroaryl substituted pyrazoles as p38 kinase inhibitors” (Pharmacia Corporation, priority 1997, dated 2003)

Key:
human p38 kinase alpha [1] = target: T1, human p38 kinase alpha (Homo sapiens, UniProt Q16539); experiment: p38 kinase in vitro assay, PHAS-I phosphorylation (32P-ATP); type: biochemical; settings: p38α in vitro results based on PHAS-I assay procedure, read-out: P38α^1
T1 construct: The coding region of the human p38a cDNA was obtained by PCR-amplification from RNA; made in house; host or cells: E. coli DH10B
Description: The ability of compounds to inhibit human p38 kinase alpha was evaluated using two in vitro assay methods. In the first method, activated human p38 kinase alpha phosphorylates a biotinylated substrate, PHAS-I (phosphorylated heat and acid stable protein-insulin inducible), in the presence of gamma ^32P-ATP (^32P-ATP). PHAS-I was biotinylated prior to the assay and provides a means of capturing the substrate which is phosphorylated during the assay. p38 Kinase was activated by MKK6. Compounds were tested in 10 fold serial dilutions over the range of 100 μM to 0.001 μM using 1% DMSO. Each concentration of inhibitor was tested in triplicate.
All reactions were carried out in 96 well polypropylene plates. Each reaction well contained 25 mM HEPES pH 7.5, 10 mM magnesium acetate and 50 μM unlabeled ATP. Activation of p38 was required to achieve sufficient signal in the assay. Biotinylated PHAS-I was used at 1-2 μg per 50 μl reaction volume, with a final concentration of 1.5 μM. Activated human p38 kinase alpha was used at 1 μg per 50 μl reaction volume representing a final concentration of 0.3 μM. Gamma ^32P-ATP was used to follow the phosphorylation of PHAS-I. ^32P-ATP has a specific activity of 3000 Ci/mmol and was used at 1.2 μCi per 50 μl reaction volume. The reaction Proceeded either for one hour or overnight at 30° C.
Following incubation, 20 μl of reaction mixture was transferred to a high capacity streptavidin coated filter plate (SAM-streptavidin-matrix, Promega) prewetted with phosphate buffered saline. The transferred reaction mix was allowed to contact the streptavidin membrane of the Promega plate for 1-2 minutes. Following capture of biotinylated PHAS-I with ^32P incorporated, each well was washed to remove unincorporated ^32P-ATP three times with 2M NaCl, three washes of 2M NaCl with 1% phosphoric, three washes of distilled water and finally a single wash of 95% ethanol. Filter plates were air dried and 20 μl of scintillant was added. The plates were sealed and counted.

[2] = tested on: TNF production by U937 cells; experiment: LPS stimulation of TNF production by U937 cells; type: cell-based; settings: Homo sapiens, U-937, LPS-stimulated TNF-α release, differentiated U937 cells, 4 hour incubation
Description: U937 cells (ATCC) were propagated in RPMI 1640 containing 10% Fetal bovine serum, 100 IU/ml penicillin, 100 μg/ml streptomycin, and 2 mM glutamine (Gibco). Fifty million cells in 100 ml media were induced to terminal monocytic differentiation by 24 hour incubation with 20 ng/ml phorbol 12-myristate 13-acetate (Sigma). The cells were washed by centrifugation (200×g for 5 min) and resuspended in 100 ml fresh medium. After 24-48 hours, the cells were harvested, centrifuged, and resuspended in culture medium at 2 million cells/ml.
U937 cells (0.1 ml, 2 million/ml) were incubated with 0.1 ml compound (0.004-50 μM, final concentration) for 1 hour in 96 well microtiter plates. Compounds were prepared as 10 mM stock solutions in DMSO and diluted in culture medium to yield a final DMSO concentration of 0.1% in the cell assay. LPS (E. coli, 100 ng/ml final concentration) was then added at a volume of 0.02 ml. After 4 hour incubation at 37° C., the amount of TNF-α released in the culture medium was quantitated by ELISA. Inhibitory potency is expressed as IC50 (μM).

human p38 kinase alpha [3] = target: T1, human p38 kinase alpha; experiment: p38 kinase in vitro assay, EGFRP phosphorylation (33P-ATP); type: biochemical; settings: p38α in vitro results based on EGFRP assay procedure, read-out: p38α^2
Description: A second assay format was also employed that is based on p38 kinase alpha induced phosphorylation of EGFRP (epidermal growth factor receptor peptide, a 21 mer) in the presence of ^33P-ATP. Compounds were tested in 10 fold serial dilutions over the range of 100 μM to 0.001 μM in 1% DMSO. Each concentration of inhibitor was tested in triplicate. Compounds were evaluated in 50 μl reaction volumes in the presence of 25 mM Hepes pH 7.5, 10 mM magnesium acetate, 4% glycerol, 0.4% bovine serum albumin, 0.4 mM DTT, 50 μM unlabeled ATP, 25 μg EGFRP (200 μM), and 0.05 uCi gamma ^33P-ATP. Reactions were initiated by addition of 0.09 μg of activated, purified human GST-p38 kinase alpha. Activation was carried out using GST-MKK6 (5:1,p38:MKK6) for one hour at 30° C. in the presence of 50 μM ATP. Following incubation for 60 minutes at room temperature, the reaction was stopped by addition of 150 μl of AG 1×8 resin in 900 mM sodium formate buffer, pH 3.0 (1 volume resin to 2 volumes buffer). The mixture was mixed three times with pipetting and the resin was allowed to settle. A total of 50 μl of clarified solution head volume was transferred from the reaction wells to Microlite-2 plates. 150 μl of Microscint 40 was then added to each well of the Microlite plate, and the plate was sealed, mixed, and counted.

serum TNF = experiment: Mouse model of LPS-induced TNF alpha production; type: in vivo, BALB/c female mice; settings: percent inhibition of serum TNF, oral gavage 6 hours prior to LPS injection, mice
Description: TNF alpha was induced in 10-12 week old BALB/c female mice by tail vein injection with 100 ng lipopolysaccharide (from S. Typhosa) in 0.2 ml saline. One hour later mice were bled from the retroorbital sinus and TNF concentrations in serum from clotted blood were quantified by ELISA. Typically, peak levels of serum TNF ranged from 2-6 ng/ml one hour after LPS injection.
The compounds tested were administered to fasted mice by oral gavage as a suspension in 0.2 ml of 0.5% methylcellulose and 0.025% Tween 20 in water at 1 hour or 6 hours prior to LPS injection. The 1 hour protocol allowed evaluation of compound potency at Cmax plasma levels whereas the 6 hour protocol allowed estimation of compound duration of action. Efficacy was determined at each time point as percent inhibition of serum TNF levels relative to LPS injected mice that received vehicle only.

T1 sequence (Q16539 whole entry): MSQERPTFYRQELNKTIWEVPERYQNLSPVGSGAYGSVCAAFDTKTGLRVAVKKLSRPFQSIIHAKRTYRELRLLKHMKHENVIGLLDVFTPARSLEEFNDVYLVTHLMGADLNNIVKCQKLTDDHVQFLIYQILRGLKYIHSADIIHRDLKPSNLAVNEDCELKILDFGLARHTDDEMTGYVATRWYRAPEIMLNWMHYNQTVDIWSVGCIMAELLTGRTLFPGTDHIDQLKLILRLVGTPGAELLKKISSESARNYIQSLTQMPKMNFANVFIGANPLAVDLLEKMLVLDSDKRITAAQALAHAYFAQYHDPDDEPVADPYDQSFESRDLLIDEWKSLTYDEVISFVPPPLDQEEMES

4-(4-fluorophenyl)-3-(4-pyridinyl)-1H-pyrazole-1-ethanol and 4-(4-fluorophenyl)-5-(4-pyridinyl)-1H-pyrazole-1-ethanol [Example 11]
IC50 (human p38 kinase alpha [1]): 0.695 µM

4-(4-fluorophenyl)-N,N-dimethyl-3-(4-pyridinyl)-1H-pyrazole-1-ethanamine and 4-(4fluorophenyl)-N,N-dimethyl-5-(4-pyridinyl)-1H-pyrazole-1-ethanamine [Example 12]
IC50 (human p38 kinase alpha [1]): 0.941 µM

4-[2-[4-(4-fluorophenyl)-3-(4-pyridinyl)-1H-pyrazol-1-yl]ethyl]morpholine and 4-[2-[4-(4-fluorophenyl)-5-(4-pyridinyl)-1H-pyrazol-1-yl]ethyl]morpholine [Example 13]
IC50 (human p38 kinase alpha [1]): 0.86 µM

Cc1n[nH]c(-c2ccncc2)c1-c1ccccc1 [Example 1, 4-(3-methyl-4-phenyl-1H-pyrazol-5-yl)pyridine]
IC50 [2]: ≥ 10 µM
melting point: 164 to 165 °C
IC50 (human p38 kinase alpha [1]): 30 µM
IC50 (human p38 kinase alpha [3]): 13.3 µM

Nc1n[nH]c(-c2ccncc2)c1-c1ccc(F)cc1 [Example 2, 4-(4-fluorophenyl)-5-(4-pyridinyl)-1H-pyrazol-3-amine]
IC50 [2]: 10.6 µM
melting point: 178 to 180 °C
IC50 (human p38 kinase alpha [3]): 6.21 µM

CS(=O)(=O)Nc1n[nH]c(-c2ccncc2)c1-c1ccc(F)cc1 [Example 3, N-[4 (4-fluorophenyl)-5-(4-pyridinyl)-1H-pyrazol-3-yl]methanesulfonamide]
IC50 [2]: > 10 µM
melting point: 168 to 170 °C
IC50 (human p38 kinase alpha [3]): 2.55 µM

CNS(=O)(=O)Nc1n[nH]c(-c2ccncc2)c1-c1ccc(F)cc1 [Example 4, N-[4-(4-fluorophenyl)-5-(4-pyridinyl)-1H-pyrazol-3-yl]-N′-methylsulfamide]
IC50 [2]: 4.7 µM
melting point: 194 to 195 °C
mLPS (6 h @ (30 mpk)) (serum TNF): 54%
IC50 (human p38 kinase alpha [3]): 0.23 µM

NC(=O)Nc1n[nH]c(-c2ccncc2)c1-c1ccc(F)cc1 [Example 5, [4-(4-fluorophenyl)-5-(4-pyridinyl)-1H-pyrazol-3-yl]urea]
IC50 [2]: 5.53 µM
IC50 (human p38 kinase alpha [1]): 1.98 µM

Cn1nc(-c2ccncc2)c(-c2ccc(Cl)cc2)c1N [Example 7, 4-(4-chlorophenyl)-1-methyl-3-(4-pyridinyl)-1H-pyrazol-5-amine]
IC50 [2]: ≥ 10 µM
melting point: 257 to 258 °C
IC50 (human p38 kinase alpha [3]): 5.48 µM

CNC(=O)Nc1n[nH]c(-c2ccncc2)c1-c1ccc(F)cc1 [Example 8, N-[4-(4-fluorophenyl)-5-(4-pyridinyl)-1H-pyrazol-3-yl]-N′-methylurea]
IC50 [2]: ≥ 10 µM
melting point: 212 to 213 °C

Fc1ccc(-c2cn[nH]c2-c2ccncc2)cc1 [Example 9, 4-[4-(4-fluorophenyl)-1H-pyrazol-3-yl]pyridine]
IC50 [2]: 0.647 µM
IC50 (human p38 kinase alpha [1]): 2.44 µM
mLPS (6 h @ (30 mpk)) (serum TNF): 42%
IC50 (human p38 kinase alpha [3]): 3.46 µM

Cn1cc(-c2ccc(F)cc2)c(-c2ccncc2)n1 [Example 10, 4-[4-(4-fluorophenyl)-1-methyl-1H-pyrazol-3-yl]pyridine]
IC50 [2]: 1.6 µM
IC50 (human p38 kinase alpha [1]): 7.23 µM
mLPS (6 h @ (30 mpk)) (serum TNF): 76%
IC50 (human p38 kinase alpha [3]): 0.4 µM

Clc1ccc(-c2c[nH]nc2-c2ccncc2)cc1 [Example 15, 4-[4-(4-chlorcophenyl)-1H-pyrazol-3-yl]pyridine]
IC50 (human p38 kinase alpha [1]): 5.9 µM
mLPS (6 h @ (30 mpk)) (serum TNF): 32%
IC50 (human p38 kinase alpha [3]): 0.75 µM
